This note sets out measurements from ChEMBL document CHEMBL4152374, “A new phenolic series of indenopyridinone as topoisomerase inhibitors: Design, synthesis, and structure-activity relationships” (Bioorg Med Chem, 2018).

The subject of one assay is Calf thymus DNA. The experiment in a line: Inhibition of EtBr binding to calf thymus DNA up to 40 uM by fluorescence spectroscopy. The conditions noted are these: Bos taurus. In kind it is nucleic-acid assay.
The test system of a further assay is T47D. Description: Antiproliferative activity against human T47D cells after 72 hrs by EZ-CYTOX reagent based assay. In kind it is functional, cell-based.
A further assay relates to HeLa. Description: Antiproliferative activity against human HeLa cells after 72 hrs by EZ-CYTOX reagent based assay. In kind it is functional, cell-based.
Assay [1] deals with T1, DNA topoisomerase 1 (Homo sapiens) (UniProt P11387).
T1 sequence (whole entry): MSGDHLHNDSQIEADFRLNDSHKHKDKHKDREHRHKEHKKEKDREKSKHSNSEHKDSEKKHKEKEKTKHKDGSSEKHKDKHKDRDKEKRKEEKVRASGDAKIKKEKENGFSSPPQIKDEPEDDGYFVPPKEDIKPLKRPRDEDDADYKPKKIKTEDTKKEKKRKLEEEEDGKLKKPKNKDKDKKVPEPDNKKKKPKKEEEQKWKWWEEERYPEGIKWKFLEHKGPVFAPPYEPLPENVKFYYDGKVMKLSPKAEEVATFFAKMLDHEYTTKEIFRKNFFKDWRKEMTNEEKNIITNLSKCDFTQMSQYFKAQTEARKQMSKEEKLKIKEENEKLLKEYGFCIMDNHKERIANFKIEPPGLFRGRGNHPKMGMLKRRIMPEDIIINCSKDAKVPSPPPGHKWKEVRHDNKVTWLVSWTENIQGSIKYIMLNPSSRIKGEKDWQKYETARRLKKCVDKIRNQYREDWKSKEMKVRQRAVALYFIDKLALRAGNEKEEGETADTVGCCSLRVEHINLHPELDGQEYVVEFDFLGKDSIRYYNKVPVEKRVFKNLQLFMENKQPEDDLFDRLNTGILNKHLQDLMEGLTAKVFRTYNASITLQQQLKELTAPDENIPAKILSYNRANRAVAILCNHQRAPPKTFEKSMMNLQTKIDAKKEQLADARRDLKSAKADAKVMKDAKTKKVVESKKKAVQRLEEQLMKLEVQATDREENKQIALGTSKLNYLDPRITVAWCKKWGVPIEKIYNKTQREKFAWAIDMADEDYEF
The experiment in a line: Inhibition of human topoisomerase 1 using supercoiled pBR322 plasmid DNA as substrate at 100 uM after 30 mins by agarose gel electrophoresis method relative to control.

Assay [2] addresses DNA topoisomerase 2-alpha (Homo sapiens) (UniProt P11388). The experiment in a line: Inhibition of human topoisomerase 2-alpha using supercoiled pBR322 plasmid DNA as substrate at 100 uM after 30 mins by agarose gel electrophoresis method relative to control.
The target is the same in assay [3]. Description: Inhibition of human topoisomerase 2-alpha using supercoiled pBR322 plasmid DNA as substrate at 20 uM after 30 mins by agarose gel electrophoresis method relative to control.
The test system of the next assay is HCT-15. Description: Antiproliferative activity against human HCT15 cells after 72 hrs by EZ-CYTOX reagent based assay. Conditions: HCT-15, 72 h. In kind it is functional, cell-based.
The target in assay [4] is DNA topoisomerase 2-alpha (Homo sapiens) (UniProt P11388). Description: Inhibition of human topoisomerase 2-alpha using supercoiled pBR322 plasmid DNA as substrate at 100 uM after 30 mins by agarose gel electrophoresis method relative to etoposide.
Chain of DNA topoisomerase 2-alpha (Homo sapiens) (P11388 whole entry): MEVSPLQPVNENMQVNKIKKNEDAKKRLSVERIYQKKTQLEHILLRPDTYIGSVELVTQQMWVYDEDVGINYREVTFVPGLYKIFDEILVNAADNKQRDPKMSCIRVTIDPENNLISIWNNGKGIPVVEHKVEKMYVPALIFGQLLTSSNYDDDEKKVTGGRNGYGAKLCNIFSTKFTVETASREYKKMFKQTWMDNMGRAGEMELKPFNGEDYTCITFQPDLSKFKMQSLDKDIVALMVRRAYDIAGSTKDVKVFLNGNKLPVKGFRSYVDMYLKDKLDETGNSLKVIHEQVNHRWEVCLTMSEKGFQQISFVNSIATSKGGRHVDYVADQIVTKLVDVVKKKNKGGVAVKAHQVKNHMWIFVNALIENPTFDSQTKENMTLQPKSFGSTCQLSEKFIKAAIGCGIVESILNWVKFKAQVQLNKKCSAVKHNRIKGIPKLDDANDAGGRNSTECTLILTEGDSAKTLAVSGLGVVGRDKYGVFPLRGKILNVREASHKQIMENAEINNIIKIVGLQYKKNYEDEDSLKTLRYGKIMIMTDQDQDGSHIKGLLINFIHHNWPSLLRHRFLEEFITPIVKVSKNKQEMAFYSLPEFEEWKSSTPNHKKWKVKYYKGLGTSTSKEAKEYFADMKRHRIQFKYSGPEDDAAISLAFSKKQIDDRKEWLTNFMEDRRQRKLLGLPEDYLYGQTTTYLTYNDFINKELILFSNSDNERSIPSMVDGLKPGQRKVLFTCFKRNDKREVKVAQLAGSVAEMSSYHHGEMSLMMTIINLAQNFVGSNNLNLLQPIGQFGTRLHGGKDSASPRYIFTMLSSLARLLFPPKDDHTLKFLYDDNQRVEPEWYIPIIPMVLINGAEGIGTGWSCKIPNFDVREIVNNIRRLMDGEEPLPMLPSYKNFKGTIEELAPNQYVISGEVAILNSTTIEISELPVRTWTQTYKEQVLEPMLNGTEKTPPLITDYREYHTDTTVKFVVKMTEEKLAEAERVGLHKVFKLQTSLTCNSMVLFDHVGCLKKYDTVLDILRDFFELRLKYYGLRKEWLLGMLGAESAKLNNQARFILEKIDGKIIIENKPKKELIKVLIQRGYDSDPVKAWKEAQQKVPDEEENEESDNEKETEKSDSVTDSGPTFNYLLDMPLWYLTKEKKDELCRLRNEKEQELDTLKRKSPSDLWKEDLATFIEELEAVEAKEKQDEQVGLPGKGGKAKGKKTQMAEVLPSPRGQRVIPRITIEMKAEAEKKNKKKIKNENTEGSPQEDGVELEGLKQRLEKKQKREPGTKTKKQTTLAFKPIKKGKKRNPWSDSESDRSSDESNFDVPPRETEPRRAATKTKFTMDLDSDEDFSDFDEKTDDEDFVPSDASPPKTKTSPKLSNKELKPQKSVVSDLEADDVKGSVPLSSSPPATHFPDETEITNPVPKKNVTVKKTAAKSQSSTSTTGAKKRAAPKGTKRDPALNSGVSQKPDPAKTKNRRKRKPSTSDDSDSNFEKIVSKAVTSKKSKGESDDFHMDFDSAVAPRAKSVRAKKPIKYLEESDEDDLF
Assay [5] has the same target. The experiment in a line: Inhibition of human topoisomerase 2-alpha using supercoiled pBR322 plasmid DNA as substrate at 20 uM after 30 mins by agarose gel electrophoresis method relative to etoposide.
In assay [6] the target is T1, DNA topoisomerase 1 (Homo sapiens). The experiment in a line: Inhibition of human topoisomerase 1 using supercoiled pBR322 plasmid DNA as substrate at 20 uM after 30 mins by agarose gel electrophoresis method relative to control.

Where a name gives a salt, the structure may show the parent alone.

The inhibition is the change of the read-out against control, counted positive when it falls. Regarding `COc1cc(NS(C)(=O)=O)ccc1Nc1c2ccccc2nc2ccccc12`, in the assay on Calf thymus DNA, the inhibition result is “Dose-dependent effect”.

As a reminder, the IC50 is the concentration needed to halve the response being measured. In the case of `COc1cccc2c1C(=O)c1c(O)c3c(c(O)c1C2=O)C[C@@](O)(C(=O)CO)C[C@@H]3O[C@H]1C[C@H](N)[C@H](O)[C@H](C)O1` [DOXORUBICIN HYDROCHLORIDE], the IC50 in the assay on T47D came to 0.31 µM; in the assay on HeLa, 1.5 µM.

On to `O=C1c2ccccc2-c2nc(-c3ccc(O)cc3)cc(-c3ccc(O)cc3)c21`, for which the values for the inhibition in [1], in assay [2] and in assay [3] were 0%, 100% and 30.5%, respectively. The IC50 is 1.87 µM in the assay with HCT-15, 0.37 µM in the assay with T47D and 4.72 µM in the assay with HeLa. For the same compound, the fold change (FC) in assay [4] is 1.33 to 1.42; in assay [5] it was 0.61.

As to `Oc1ccc(-c2cc(-c3ccccc3)nc3c2C(O)c2ccccc2-3)cc1` (configuration not stated), the inhibition turned out to be 63.9% in assay [1], 0% in [6], 53.6% in assay [2] and 22.6% in assay [3]. The IC50 with HCT-15 is greater than 50 µM; in the assay on T47D it was 3.25 µM; with HeLa it was greater than 50 µM.

Take `O=C1c2ccccc2-c2nc(-c3ccccc3)cc(-c3ccc(O)cc3)c21`: the inhibition is 50% in [1], 0% in assay [6], 63.3% in assay [2] and 15.2% in assay [3]. Also, the half-maximal inhibitory concentration (IC50) with HCT-15, in the assay with T47D and with HeLa was greater than 50 µM throughout. The values for the fold change (FC) in assay [4] and in [5] were 0.9 and 0.35, respectively.

As for `Oc1cccc(-c2cc(-c3ccccc3)c3c(n2)-c2ccccc2C3O)c1` (configuration not stated), the results for the inhibition in assay [1], in assay [2] and in [3] were 0%, 40.7% and 0.3%, respectively. The IC50 with HCT-15, with T47D and in the assay with HeLa was greater than 50 µM in each case.

Take `O=C1c2ccccc2-c2nc(-c3cccc(O)c3)cc(-c3cccc(O)c3)c21`: the inhibition in [1] is 25.7%; in assay [2], 68.9%; in [3], 20.8%. The IC50 was greater than 50 µM with HCT-15, 1.24 µM with T47D and greater than 50 µM in the assay on HeLa. Moreover, the values for the fold change (FC) in assay [4] and in assay [5] were 0.98 and 0.47, respectively.

As to `O=C1c2ccccc2-c2nc(-c3ccccc3O)cc(-c3ccc(O)cc3)c21`, the inhibition is 0% in [1] and 5.2% in assay [2]. Besides, the 50% inhibitory concentration (IC50) in the assay with HCT-15, with T47D and in the assay with HeLa was greater than 50 µM throughout. In addition, in assay [4], the fold change (FC) stood at 0.07.

For the compound `O=C1c2ccccc2-c2nc(-c3ccc(O)cc3)cc(-c3cccc(O)c3)c21`, the inhibition in assay [1] came to 75.5%; in assay [6], 7.5%; in assay [2] it was 71.9%; in assay [3], 60.5%. Also, the IC50 in the assay on HCT-15 amounted to 1.96 µM; in the assay on T47D, 1.49 µM; in the assay with HeLa it was 4.32 µM. Moreover, the fold change (FC) in [4] worked out at 1.02; in assay [5] it was 1.38.

`O=C1c2ccccc2-c2nc(-c3ccccc3O)cc(-c3ccccc3O)c21`: the inhibition in assay [1] is 0%; in [2] it was 32.8%; in assay [3], 9.9%. Also, the IC50 with HCT-15, in the assay on T47D and with HeLa was greater than 50 µM in each case. Moreover, the fold change (FC) came to 0.44 in assay [4] and 0.2 in [5].

As for `O=C1c2ccccc2-c2nc(-c3ccccc3O)cc(-c3cccc(O)c3)c21`, the inhibition is 0% in assay [1], 86.5% in assay [2] and 12.8% in [3]. In addition, the IC50 was 6.09 µM with HCT-15, greater than 50 µM with T47D and 4.84 µM in the assay on HeLa. Besides, the fold change (FC) is 1.15 to 1.23 in assay [4] and 0.26 in assay [5].

Consider `O=C1c2ccccc2-c2nc(-c3ccccc3)cc(-c3cccc(O)c3)c21`, for which the inhibition in assay [1] stood at 7.4%; in assay [2] it was 9.3%. For the same compound, the IC50 was determined as 2.48 µM in the assay with HCT-15, 1.18 µM with T47D and 2.24 µM with HeLa. Also, the fold change (FC) in [4] worked out at 0.12.

As to `O=C1c2ccccc2-c2nc(-c3ccccc3O)cc(-c3ccccc3)c21`, the inhibition in assay [1] is 0%; in assay [2], 4.9%. The IC50 was greater than 50 µM with HCT-15, 10.5 µM in the assay on T47D and 31.7 µM in the assay on HeLa. The fold change (FC) in assay [4] was 0.06.

For `O=C1c2ccccc2-c2nc(-c3ccc(O)cc3)cc(-c3ccccc3)c21`, the inhibition in assay [1] is 0%; in assay [2] it was 23.3%. In addition, the IC50 is 2.18 µM in the assay on HCT-15, 1.4 µM in the assay with T47D and 2.25 µM with HeLa. Further, in assay [4], the fold change (FC) is 0.31.

In the case of `O=C1c2ccccc2-c2nc(-c3cccc(O)c3)cc(-c3ccccc3O)c21`, the inhibition in assay [1] was 0%; in assay [2] it was 2.6%. In addition, the IC50 is 1.36 µM with HCT-15, 0.11 µM in the assay with T47D and 1.52 µM with HeLa. For the same compound, the fold change (FC) in assay [4] is 0.03.

In the case of `O=C1c2ccccc2-c2nc(-c3ccccc3)cc(-c3ccccc3)c21`, the results for the inhibition in assay [1] and in [2] were 5.8% and 25%, respectively. In addition, the IC50 is greater than 50 µM with HCT-15, 6.5 µM in the assay with T47D and greater than 50 µM in the assay with HeLa.

Take `O=C1c2ccccc2-c2nc(-c3cccc(O)c3)cc(-c3ccccc3)c21`: the inhibition is 0.5% in assay [1] and 22.5% in assay [2]. Besides, the concentration for half-maximal inhibition (IC50) with HCT-15, in the assay with T47D and with HeLa was greater than 50 µM each time. Moreover, in assay [4], the fold change (FC) is 0.32.

Consider `Oc1ccc(-c2cc(-c3cccc(O)c3)c3c(n2)-c2ccccc2C3O)cc1` (configuration not stated), for which the inhibition came to 71.9% in assay [1], 61.7% in assay [6], 60.9% in [2] and 26.7% in [3]. The IC50 in the assay on HCT-15 is 9.76 µM; in the assay with T47D it was 1.7 µM; with HeLa it was 7.08 µM.

As to `OC1c2ccccc2-c2nc(-c3ccccc3)cc(-c3ccccc3)c21` (configuration not stated), the inhibition in assay [1] worked out at 81%; in assay [6], 0%; in assay [2], 21.5%. In addition, the IC50 in the assay on HCT-15, in the assay with T47D and in the assay with HeLa was greater than 50 µM in each case.

As to `O=C1c2ccccc2-c2nc(-c3ccccc3)cc(-c3ccccc3O)c21`, the inhibition was found to be 0% in [1] and 23.8% in [2]. Moreover, the figures for the half-maximal inhibitory concentration (IC50) with HCT-15, in the assay on T47D and in the assay with HeLa were 2.32 µM, 1.33 µM and 2.58 µM, respectively. The fold change (FC) in [4] turned out to be 0.32.

As for `COc1cc([C@@H]2c3cc4c(cc3[C@@H](O[C@@H]3O[C@@H]5CO[C@@H](C)O[C@H]5[C@H](O)[C@H]3O)[C@H]3COC(=O)[C@H]23)OCO4)cc(OC)c1O` [ETOPOSIDE], the concentration for half-maximal inhibition (IC50) in the assay on HCT-15 amounted to 2.94 µM; in the assay on T47D it was 0.4 µM; in the assay on HeLa, 9.21 µM.

As to `CC[C@@]1(O)C(=O)OCc2c1cc1n(c2=O)Cc2cc3ccccc3nc2-1` [CAMPTOTHECIN], the half-inhibitory concentration (IC50) in the assay with HCT-15 amounted to 0.05 µM; with HeLa, 1.37 µM.

Take `Oc1ccc(-c2cc(-c3ccccc3O)c3c(n2)-c2ccccc2C3O)cc1` (configuration not stated): the inhibition in [1] amounted to 11.5%; in assay [2], 57.7%; in assay [3], 12.1%. Besides, the concentration for half-maximal inhibition (IC50) with HCT-15 was 13 µM; in the assay on T47D, 4.28 µM; in the assay on HeLa, 10.8 µM.

As for `O=C1c2ccccc2-c2nc(-c3ccc(O)cc3)cc(-c3ccccc3O)c21`, the inhibition turned out to be 60% in assay [1], 0% in assay [6], 72.8% in assay [2] and 12% in assay [3]. Also, the 50% inhibitory concentration (IC50) was 2.82 µM in the assay with HCT-15, 0.42 µM in the assay with T47D and 2.3 µM in the assay with HeLa. Besides, the fold change (FC) came out at 1.04 in [4] and 0.27 in assay [5].

Regarding `Oc1cccc(-c2cc(-c3cccc(O)c3)c3c(n2)-c2ccccc2C3O)c1` (configuration not stated), the inhibition in assay [1] came to 20.1%; in assay [2] it was 55.1%; in [3], 17.8%. The half-inhibitory concentration (IC50) was 6.2 µM with HCT-15, 1.61 µM with T47D and 6.91 µM in the assay on HeLa.
